# Test results as given in US12503452B2 (Curza Global, LLC, priority 2019, dated 2025).
# Counter-ions that a name gives are not always drawn. Like-named read-outs stand apart in the source and are kept apart here.
# Assays:
# [1] = system: E. coli S30 extract (bacterial protein synthesis); test: E. coli S30 extract coupled transcription-translation luciferase assay (inhibition of bacterial protein synthesis); assay type: biochemical; settings: class by IC50 or % inhibition @ 1 μM, read-out: S30 IC50 (μM/% inhib.)
# Outline: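 Cell-free coupled transcription-translation in E. coli S30 circular-DNA extract, with pBESTluc plasmid as template and complete amino acid mix. Eight 2-fold compound dilutions were incubated with the extract 1 h at 37 °C, chilled, then luciferase luminescence was read. % inhibition was taken relative to no-inhibitor wells; no-DNA wells gave background.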
# [2] = target: Rabbit Reticulocyte Lysate (eukaryotic protein synthesis); test: Rabbit reticulocyte lysate luciferase assay (inhibition of eukaryotic protein synthesis); assay type: biochemical; settings: class by IC50 or % inhibition @ 1 μM, read-out: Rabbit reticulocyte IC50 (μM/% inhib.)
# Outline: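 Nuclease-treated rabbit reticulocyte lysate translating luciferase control RNA, with complete amino acids, was incubated at 30° C. for 90 minutes with 2-fold serial compound dilutions. Luminescence was measured after adding luciferase reagent. % inhibition was relative to water controls, with no-RNA wells as background.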
# A. baumannii (Ab) = test: Broth microdilution minimum inhibitory concentration (MIC); assay type: cell-based; settings: for MIC: Acinetobacter baumannii, read-out: Ab + bicarb MIC
# Outline: (§1)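 CLSI broth microdilution with 8 two-fold compound dilutions in CAMHB, or CAMHB plus sodium bicarbonate (6.25 or 25 mM final) or heat-inactivated human serum (0–50%). Inoculum 5×10^4 CFU/well from 0.5 McFarland cultures grown at 35±2° C; tested in triplicate.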
# E. coli (Ec) = test: as above; assay type: cell-based; settings: for MIC: Escherichia coli, read-out: E. coli + bicarb MIC
# Outline: as §1
# E. faecalis (Ef) = test: as above; assay type: cell-based; settings: for MIC: Enterococcus faecalis, read-out: Ef + bicarb MIC
# Outline: as §1
# P. aeruginosa (Pa) = test: as above; assay type: cell-based; settings: for MIC: Pseudomonas aeruginosa, read-out: Pa MIC + bicarb
# Outline: as §1
# S. aureus (Sa) = test: as above; assay type: cell-based; settings: for MIC: Staphylococcus aureus, read-out: Sa + bicarb MIC
# Outline: as §1
# [3] = A. baumannii, growth medium with sodium bicarbonate
# [4] = E. coli, growth medium with sodium bicarbonate
# [5] = E. faecalis, growth medium with sodium bicarbonate
# [6] = P. aeruginosa, growth medium with sodium bicarbonate
# [7] = S. aureus, growth medium with sodium bicarbonate
Structure (SMILES),IC50 [1],IC50 [2],MIC (A. baumannii (Ab); [3]),MIC (E. coli (Ec); [4]),Ef + bicarb MIC (E. faecalis (Ef); [5]),Pa MIC + bicarb (P. aeruginosa (Pa); [6]),MIC (S. aureus (Sa); [7]),Ab + bicarb MIC (A. baumannii (Ab); [3]),E. coli + bicarb MIC (E. coli (Ec); [4]),Sa + bicarb MIC (S. aureus (Sa); [7]),MIC (E. faecalis (Ef); [5]),MIC (P. aeruginosa (Pa); [6]),MIC (A. baumannii (Ab)),MIC (E. coli (Ec)),MIC (E. faecalis (Ef)),MIC (P. aeruginosa (Pa)),MIC (S. aureus (Sa))
CCN(C(C)Cc1ccc(-n2ccc(NC(=O)N3CCN(C(=O)C(C)(C)N)CC3)nc2=O)cc1)C1CCC(N)CC1 (stereo not drawn) [Compound 281],< 0.5 µM,> 1 µM,> 32 µg/mL,< 8 µg/mL,+++ (An MIC value (μg/mL) that is less than 8 μg/mL),++ (An MIC value (μg/mL) that is 8 μg/mL or greater and less than 32 μg/mL),< 8 µg/mL,–,–,–,–,–,–,–,–,–,–
CCN(C(C)Cc1ccc(-n2ccc(NC(=O)N3CCN(C(=O)C(C)(C)N)CC3)nc2=O)cc1)C1CCC(N)CC1 (stereo not drawn) [Compound 282],> 1 µM,> 1 µM,–,–,+ (An MIC value (μg/mL) that is 32 μg/mL or greater),+ (An MIC value (μg/mL) that is 32 μg/mL or greater),–,+ (An MIC value (μg/mL) that is 32 μg/mL or greater),+++ (An MIC value (μg/mL) that is less than 8 μg/mL),+++ (An MIC value (μg/mL) that is less than 8 μg/mL),–,–,–,–,–,–,–
Cc1cc(-n2ccc(NC(=O)N3CCN(C(=O)C(C)(C)N)CC3)nc2=O)ccc1CNC1CCC(N)CC1 (stereo not drawn) [Compound 283],< 0.5 µM,> 1 µM,> 32 µg/mL,< 8 µg/mL,–,–,< 8 µg/mL,–,–,–,< 8 µg/mL,> 32 µg/mL,–,–,–,–,–
Cc1cc(-n2ccc(NC(=O)N3CCN(C(=O)C(C)(C)N)CC3)nc2=O)ccc1CN(C)C1CCC(N)CC1 (stereo not drawn) [Compound 284],< 0.5 µM,> 1 µM,< 8 µg/mL,< 8 µg/mL,–,–,< 8 µg/mL,–,–,–,< 8 µg/mL,8 to 32 µg/mL,–,–,–,–,–
CCN(Cc1ccc(-n2ccc(NC(=O)N3CCN(C(=O)C(C)(C)N)CC3)nc2=O)cc1C)C1CCC(N)CC1 (stereo not drawn) [Compound 285],< 0.5 µM,> 1 µM,< 8 µg/mL,< 8 µg/mL,–,–,< 8 µg/mL,–,–,–,< 8 µg/mL,8 to 32 µg/mL,–,–,–,–,–
CN(Cc1ccc(-n2ccc(NC(=O)N3CCN(C(=O)[C@@](C)(N)CO)CC3)nc2=O)cc1)C1CCC(N)CC1 (stereo partly drawn) [Compound 286],< 0.5 µM,> 1 µM,> 32 µg/mL,< 8 µg/mL,–,–,< 8 µg/mL,–,–,–,< 8 µg/mL,> 32 µg/mL,–,–,–,–,–
CCN(Cc1ccc(-n2ccc(NC(=O)N3CCN(C(=O)[C@@](C)(N)CO)CC3)nc2=O)cc1)C1CCC(N)CC1 (stereo partly drawn) [Compound 287],< 0.5 µM,> 1 µM,> 32 µg/mL,< 8 µg/mL,–,–,< 8 µg/mL,–,–,–,< 8 µg/mL,8 to 32 µg/mL,–,–,–,–,–
C[C@](N)(CO)C(=O)N1CCN(C(=O)Nc2ccn(-c3ccc(CNC4CCC(N)CC4)cc3)c(=O)n2)CC1 (stereo partly drawn) [Compound 288],< 0.5 µM,> 1 µM,> 32 µg/mL,< 8 µg/mL,–,–,< 8 µg/mL,–,–,–,< 8 µg/mL,> 32 µg/mL,–,–,–,–,–
NC1CCN(Cc2ccc(-n3ccc(NC(=O)N4CC5(CC(N)C5)C4)nc3=O)cc2)CC1 [Compound 289],0.5 to 1 µM,> 1 µM,> 32 µg/mL,< 8 µg/mL,–,–,< 8 µg/mL,–,–,–,> 32 µg/mL,> 32 µg/mL,–,–,–,–,–
CC(CN1CCC[C@H](N)CC1)c1ccc(-n2ccc(NC(=O)N3CCN(C(=O)C(C)(C)N)CC3)nc2=O)cc1 (stereo partly drawn) [Compound 290],0.5 to 1 µM,> 1 µM,< 8 µg/mL,< 8 µg/mL,–,–,< 8 µg/mL,–,–,–,< 8 µg/mL,> 32 µg/mL,–,–,–,–,–
"CC(C)(N)C(N1CCN(C(=O)Nc2ccn(-c3ccc(CN4CCC(N)CC4)cc3)c(=O)n2)CC1)C(F)(F)F (stereo not drawn) [Compound 291, hydrochloride salt]",> 1 µM,> 1 µM,–,–,–,–,–,–,–,–,–,–,8 to 32 µg/mL,8 to 32 µg/mL,8 to 32 µg/mL,> 32 µg/mL,< 8 µg/mL
"Cc1cc(NC(=O)N2CCN(C(=O)C(C)(C)N)CC2)nc(=O)n1-c1ccc(CN2CCC(N)CC2)cc1 [Compound 292, hydrochloride salt]",> 1 µM,> 1 µM,–,–,–,–,–,–,–,–,–,–,> 32 µg/mL,> 32 µg/mL,> 32 µg/mL,> 32 µg/mL,> 32 µg/mL
